Assay results published in ChEMBL document CHEMBL1201862, “PubChem BioAssay data set” (2004).
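Briefly, cells in 96-well plates were exposed to five compound concentrations for 48 h, and endpoints were estimated by linear interpolation. GI50 marks 50% less growth.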 Calls of active or inactive are those of the source. Cut-off read from the data, not from the text of the source: active = GI50 up to about 1.1 µM and inactive = higher.

How the values were obtained:
Assay in all cases: NCI tumour cell line growth inhibition, 48 h
786-0 = test system: 786-0
A549 = test system: A549
ACHN = test system: ACHN
EKVX = test system: EKVX
HOP-92 = test system: HOP-92
HT-29 = test system: HT-29
K562 = test system: K562
M14 = test system: M14
MDA-MB-435 = test system: MDA-MB-435
MDA-N = test system: MDA-N
NCI-H23 = test system: NCI-H23
NCI-H460 = test system: NCI-H460
NCI/ADR-RES = test system: NCI/ADR-RES
PC-3 = test system: PC-3
SF-268 = test system: SF-268
SK-OV-3 = test system: SK-OV-3
SNB-19 = test system: SNB-19
SR = test system: SR
U-251 = test system: U-251
UACC-257 = test system: UACC-257

Compound | GI50 (786-0) | GI50 (A549) | GI50 (ACHN) | GI50 (EKVX) | GI50 (HOP-92) | GI50 (HT-29) | GI50 (K562) | GI50 (M14) | GI50 (MDA-MB-435) | GI50 (MDA-N) | GI50 (NCI-H23) | GI50 (NCI-H460) | GI50 (NCI/ADR-RES) | GI50 (PC-3) | GI50 (SF-268) | GI50 (SK-OV-3) | GI50 (SNB-19) | GI50 (SR) | GI50 (U-251) | GI50 (UACC-257)
COC1N(C2CC(O)C(CO)O2)C(=O)NC(=O)C1(F)Br (stereo not given) | 5.01 µM (inactive) | 1.12 µM (active) | 1.88 µM (inactive) | 67.1 µM (inactive) | 22 µM (inactive) | 20 µM (inactive) | 36.8 µM (inactive) | 15 µM (inactive) | 39.6 µM (inactive) | 18.7 µM (inactive) | 6.73 µM (inactive) | 0.346 µM (active) | 10.7 µM (inactive) | 51.3 µM (inactive) | 1.2 µM (inactive) | > 50 µM (inactive) | 41.2 µM (inactive) | 6.18 µM (inactive) | 23.9 µM (inactive) | 70.5 µM (inactive)
COc1ccc(C(O)c2ccc3c(c2)OCO3)cc1 (stereo not given) | > 100 µM (inactive) | > 100 µM (inactive) | > 100 µM (inactive) | > 100 µM (inactive) | > 100 µM (inactive) | > 100 µM (inactive) | > 100 µM (inactive) | > 100 µM (inactive) | > 100 µM (inactive) | > 100 µM (inactive) | > 100 µM (inactive) | > 100 µM (inactive) | 65.6 µM (inactive) | > 100 µM (inactive) | > 100 µM (inactive) | > 100 µM (inactive) | > 100 µM (inactive) | 25.6 µM (inactive) | > 100 µM (inactive) | > 100 µM (inactive)
CC(c1ccccc1)n1c2ccccc2c2c(N)ncnc21 (stereo not given) | 14.9 µM (inactive) | 21.6 µM (inactive) | 11.7 µM (inactive) | 10.8 µM (inactive) | 13.6 µM (inactive) | 17.3 µM (inactive) | 24.7 µM (inactive) | 18.8 µM (inactive) | 16.9 µM (inactive) | 22.6 µM (inactive) | 20.4 µM (inactive) | 24.3 µM (inactive) | 20.4 µM (inactive) | 17.7 µM (inactive) | 21.1 µM (inactive) | 14.2 µM (inactive) | 16.5 µM (inactive) | 24.7 µM (inactive) | 16.7 µM (inactive) | 17.2 µM (inactive)
Cc1ccc2c(c1)OC1Nc3ccccc3C1=C2O (stereo not given) | 20.1 µM (inactive) | 23.4 µM (inactive) | 21.4 µM (inactive) | 17.4 µM (inactive) | 38.9 µM (inactive) | 30 µM (inactive) | 25.9 µM (inactive) | 21.5 µM (inactive) | 26.2 µM (inactive) | 24.7 µM (inactive) | 23.7 µM (inactive) | 20.2 µM (inactive) | 20.9 µM (inactive) | 16.3 µM (inactive) | 40 µM (inactive) | 13.9 µM (inactive) | 31.6 µM (inactive) | 31.2 µM (inactive) | 20.4 µM (inactive) | 22.2 µM (inactive)
Nc1c(O)c(C(=O)O)cc2ccccc12 | 19.6 µM (inactive) | 45.4 µM (inactive) | 25.4 µM (inactive) | 53.8 µM (inactive) | 35 µM (inactive) | 17 µM (inactive) | 31.8 µM (inactive) | 17.7 µM (inactive) | 18.8 µM (inactive) | 17.9 µM (inactive) | 23.3 µM (inactive) | 39.6 µM (inactive) | 32.1 µM (inactive) | 39.1 µM (inactive) | 42 µM (inactive) | > 100 µM (inactive) | > 100 µM (inactive) | 39.4 µM (inactive) | 30.3 µM (inactive) | 17.3 µM (inactive)
C=CCc1cc(-c2cc(CC=C)c(O)c(CN(CC)CC)c2)cc(CN(CC)CC)c1O | 30.5 µM (inactive) | 71.6 µM (inactive) | 80 µM (inactive) | > 80.9 µM (inactive) | 18 µM (inactive) | 15.7 µM (inactive) | 26.1 µM (inactive) | 8.93 µM (inactive) | 37.2 µM (inactive) | 31.4 µM (inactive) | 60.1 µM (inactive) | 21.3 µM (inactive) | 73.1 µM (inactive) | 40.2 µM (inactive) | 76 µM (inactive) | > 100 µM (inactive) | > 97.3 µM (inactive) | 13.5 µM (inactive) | 42.4 µM (inactive) | 23.6 µM (inactive)
Cc1cc(=O)nc(Sc2ccc([N+](=O)[O-])cc2[N+](=O)[O-])[nH]1 | 16.7 µM (inactive) | 18.5 µM (inactive) | 19.8 µM (inactive) | 32.7 µM (inactive) | 6.64 µM (inactive) | 3.55 µM (inactive) | 3.4 µM (inactive) | 16.4 µM (inactive) | 25.6 µM (inactive) | 16.7 µM (inactive) | 18.3 µM (inactive) | 23 µM (inactive) | 30.4 µM (inactive) | 22.2 µM (inactive) | 24.4 µM (inactive) | 71.8 µM (inactive) | 26.1 µM (inactive) | 6.27 µM (inactive) | 20.7 µM (inactive) | 21.2 µM (inactive)
Cc1c2cc[n+](C)c(C)c2cc2c1[nH]c1ccccc12 | 0.646 µM (active) | 1.59 µM (inactive) | 36.3 µM (inactive) | 5.46 µM (inactive) | 7.46 µM (inactive) | 10.6 µM (inactive) | 4.94 µM (inactive) | 25.2 µM (inactive) | 16.2 µM (inactive) | 27.5 µM (inactive) | 2.05 µM (inactive) | 3.37 µM (inactive) | 71.1 µM (inactive) | 22.2 µM (inactive) | 0.984 µM (active) | 12.7 µM (inactive) | 0.8 µM (active) | > 26.6 µM (inactive) | 0.69 µM (active) | 10.8 µM (inactive)
C=C(C)C12CC3CC/C(=N/O)C(C1)C3(N1CCOCC1)C/C2=N/O (stereo not given) | > 100 µM (inactive) | > 100 µM (inactive) | > 100 µM (inactive) | > 100 µM (inactive) | > 100 µM (inactive) | > 100 µM (inactive) | > 100 µM (inactive) | > 100 µM (inactive) | > 100 µM (inactive) | > 100 µM (inactive) | > 100 µM (inactive) | > 100 µM (inactive) | > 100 µM (inactive) | > 100 µM (inactive) | > 100 µM (inactive) | > 100 µM (inactive) | > 100 µM (inactive) | > 100 µM (inactive) | > 100 µM (inactive) | > 100 µM (inactive)
CSC(=N\c1ccccc1)/N=C(\SCc1ccccc1)N(C)C | 0.531 µM (active) | 1.75 µM (inactive) | 1 µM (active) | 1.63 µM (inactive) | 1.4 µM (inactive) | 0.288 µM (active) | 0.05 µM (active) | 0.789 µM (active) | 1.23 µM (inactive) | 0.748 µM (active) | 1.24 µM (inactive) | 0.161 µM (active) | 1.38 µM (inactive) | 1.29 µM (inactive) | 0.971 µM (active) | 3.24 µM (inactive) | 1.39 µM (inactive) | 0.16 µM (active) | 1.12 µM (inactive) | 1.57 µM (inactive)
